In publication PMC9866866, “Antiviral Activity of Benzoheterocyclic Compounds from Soil-Derived Streptomyces jiujiangensis NBERC-24992” (Molecules, 2023):
In brackets after ≈: the same amount, converted by molar mass.

Columns and labels:
several viruses = details: cited from earlier work
Vero cells = details: for Cytotoxicity IC50 (CC50): African green monkey
PRV [1] = assay: microbe, parasite or virus in culture; assay type: cell-based, Pseudorabies virus; details: for EC50: Suid alphaherpesvirus 1, Vero, 48 h, read-out: Antiviral Activity EC50
in vitro = details: African green monkey
PRV [2] = assay type: cell-based, Pseudorabies virus
[3] = system: various RNA and DNA viruses; details: cited from earlier work
PRV [4] = assay type: cell-based, Pseudorabies virus; remark: listed apart in the source

Row | Compound | Cytotoxicity IC50 (CC50) (Vero cells) [µg/mL] | EC50 (PRV [1]) [µg/mL] | other results
1 | COC[C@@]1(CCC(C)=C(C)C)Nc2ccc(C(N)=O)cc2C[C@H]1Cl [Benzastatin C] |  |  | antiviral activity against several viruses (several viruses): specific activities against several viruses
2 | COC[C@@]1(CCC(C)=C(C)C)Nc2ccc(C(=O)O)cc2C[C@H]1OC(C)=O [Compound 6, A-503451 D acetylate] | >20 | > 20 | 
3 | COC[C@@]1(CCC(CO)=C(C)C)Nc2ccc(C(=O)O)cc2C[C@H]1Cl [Compound 3, Virantmycin F] | >20 | 1.74 ± 0.25 (≈ 4.73 µM) | viability (in vitro): 80%
4 | NC(=O)c1ncn([C@@H]2O[C@H](CO)[C@@H](O)[C@H]2O)n1 [Ribavirin, reference compound] | >20 | 4.44 ± 1.53 (≈ 18.2 µM) | 
5 | COCC1(CCC(C)=C(C)C)Nc2ccc(C(=O)O)cc2CC1Cl (stereo not drawn) [Compound 4, virantmycin] | >20 | < 0.31 | toxic effect on the tested cells (Vero cells): does not show any toxic effect; PRV proliferation (qPCR, PRV gE) (PRV [2]): inhibits PRV proliferation in a dose–dependent manner; antiviral activity against various RNA and DNA viruses [3]: significant antiviral activity; virus infection in PRV-infected cells (indirect immunofluorescence) (PRV [4]): significantly reduced; cells alive (protection of Vero cells against PRV) (PRV [1]): more than 50%
6 | COCC12CCC(C)(O)C(C)(C)C1Cc1cc(C(=O)O)ccc1N2 (stereo not drawn) [Compound 1, Virantmycin D] | >20 | > 20 | 
7 | COC[C@@]1(CCC(C)=C(C)C)Nc2ccc(C(N)=O)cc2C[C@H]1O [benzastatin D] |  |  | antiviral activity against several viruses (several viruses): inactive
8 | COCC(O)(CCC1(C)OC1(C)C)C1Cc2cc(C(=O)O)ccc2N1 (stereo not drawn) [Compound 2, Virantmycin E] | >20 | > 20 | 
9 | COC[C@@](Cl)(CCC(C)=C(C)C)[C@@H]1Cc2cc(C(=O)O)ccc2N1 [Compound 7, A-503451 A] |  | 6.46 ± 1.38 (≈ 18.4 µM) | 
10 | COCC(O)(CCC(C)=C(C)C)C1Cc2cc(C(=O)O)ccc2N1 (stereo not drawn) [Compound 8, A-503451 B] | >20 | > 20 | 
11 | Nc1nc2c(ncn2COCCO)c(=O)[nH]1 [Acyclovir, reference compound] | >20 | 2.96 ± 1.48 (≈ 13.1 µM) | 
12 | COC[C@@]1(CCC(C)=C(C)C)Nc2ccc(C(=O)O)cc2C[C@H]1O [Compound 5, A-503451 D] | >20 | > 20 | 
